# Experimental data reported in publication PMC8844826 (iScience, 2022).
# Peptide text beside a SMILES is read from it.
# Assays:
# [1] = tested on: PSD-95; assay: confocal microscopy of LLPS droplets of fluorescently labeled PSD-95; assay type: biochemical, human; conditions: peptide 36 μM, Alexa 633-PSD-95 30 nM labeled/3 μM unlabeled, validated by SDS-PAGE sedimentation
# Method: (§1) Confocal microscopy was done using a Zeiss LSM780 using a 63x NA 1.4 plan apochromat oil objective using Argon 488 nm 25 mW, 543 nm HeNe 1.2 mW and 633 nm HeNe 5mW lasers using a detection wavelength of 490-538 nm for the 488 channel, 556-627 nm for the 543 channel, 636-758 for the 633 channel. Images were acquired using averaging of four line scans and 12-bit. The LLPS droplets were prepared in the desired concentration in PBS-TCEP at desired pH, mostly pH 7.4 unless stated otherwise, and added to an untreated lab tec (155411PK, Nunc, ThermoFischer) and imaged after being allowed to settle for 15 min at 25°C. For samples containing fluorescent protein or peptide the content of fluorescent protein or peptide was kept at 1-10% of indicated total protein or peptide concentration.
# [2] = tested on: ePSD (PSD-95, Homer3, Shank3, GKAP, SynGAP); assay: SDS-PAGE sedimentation assay with ePSD; assay type: biochemical; conditions: n = 3; for LLPS induction in the PSD-95 containing ePSD: peptide 10 μM and 100 μM; for promotion of LLPS of ePSD: SDS-PAGE sedimentation and quantification, ePSD incubated with indicated peptides
# Method: (§2) Proteins were all mixed in the desired concentration in PBS-TCEP and equilibrated for 10 min before centrifugation at 20,000 g for 15 min at 25°C using a temperature-controlled table top centrifuge. Following centrifugation, the supernatant was collected and the pellet was re-suspended in an equal amount of PBS-TCEP, usually 50 μL. To ensure proper suspension of LLPS samples were vortexed before addition of SDS buffer boiling at 95°C for 5 min. Supernatant and pellet fractions were run on any kD Mini-PROTEAN TGX Precast Protein Gels (10 or 15 wells, BioRad 4569036 or 4569033). Gels were imaged using a Li-COR Odyssey gel scanner and band intensities were analyzed using ImageJ. Significance was evaluated using one-way ANOVA with Dunnett post-test, one-way ANOVA with Tukey post-test or a two-way ANOVA with Dunnett post-test.
# [3] = target: T1, full length PSD-95 (Homo sapiens, UniProt P78352); assay: competitive fluorescence polarization (FP) binding to full length PSD-95, tracer AB-143; conditions: Ki,app
# T1 construct: FL-PSD-95 (32M3C-PSD-95 FL 1-724); made in house; host or cells: E. coli BL21-DE3-pLysS
# [4] = target: T1, full length PSD-95; assay: SDS-PAGE sedimentation assay with PSD-95; assay type: biochemical; conditions: SDS-PAGE sedimentation and quantification; n = 3
# Method: as §2
# [5] = tested on: ePSD; assay: confocal microscopy of ePSD LLPS droplets; assay type: biochemical
# Method: as §1
# [6] = tested on: 15N-PDZ1-2 of PSD-95; assay: 1H-15N-HSQC NMR chemical shift perturbation; assay type: binding; conditions: 512 μM StgA222-R236/128 μM 15N-PDZ1-2; 50 mM Tris pH 8, 200 mM NaCl, 1 mM TCEP, 25°C
# Method: All NMR spectra were recorded on 600 MHz or 750 MHz Bruker Avance III HD spectrometers equipped with QCI or TCI cryo-probes at 25°C in 50 mM Tris pH 8, 200 mM NaCl, 1 mM TCEP, 10% D2O and 250 μM DSS. Spectra were processed with NMRPipe ([Delaglio et al., 1995]) or qMDD ([Kazimierczuk and Orekhov, 2011]) if non-uniform sampling was used for the acquisition and analyzed using CCPNMR analysis ([Skinner et al., 2016]). Amide nitrogen and proton chemical shift assignments were kindly shared by Prof. […] Combined chemical shift perturbations were calculated between the unbound and the bound states using.
# [7] = SDS-PAGE sedimentation, ePSD 3 μM
# T1 sequence (P78352 whole entry): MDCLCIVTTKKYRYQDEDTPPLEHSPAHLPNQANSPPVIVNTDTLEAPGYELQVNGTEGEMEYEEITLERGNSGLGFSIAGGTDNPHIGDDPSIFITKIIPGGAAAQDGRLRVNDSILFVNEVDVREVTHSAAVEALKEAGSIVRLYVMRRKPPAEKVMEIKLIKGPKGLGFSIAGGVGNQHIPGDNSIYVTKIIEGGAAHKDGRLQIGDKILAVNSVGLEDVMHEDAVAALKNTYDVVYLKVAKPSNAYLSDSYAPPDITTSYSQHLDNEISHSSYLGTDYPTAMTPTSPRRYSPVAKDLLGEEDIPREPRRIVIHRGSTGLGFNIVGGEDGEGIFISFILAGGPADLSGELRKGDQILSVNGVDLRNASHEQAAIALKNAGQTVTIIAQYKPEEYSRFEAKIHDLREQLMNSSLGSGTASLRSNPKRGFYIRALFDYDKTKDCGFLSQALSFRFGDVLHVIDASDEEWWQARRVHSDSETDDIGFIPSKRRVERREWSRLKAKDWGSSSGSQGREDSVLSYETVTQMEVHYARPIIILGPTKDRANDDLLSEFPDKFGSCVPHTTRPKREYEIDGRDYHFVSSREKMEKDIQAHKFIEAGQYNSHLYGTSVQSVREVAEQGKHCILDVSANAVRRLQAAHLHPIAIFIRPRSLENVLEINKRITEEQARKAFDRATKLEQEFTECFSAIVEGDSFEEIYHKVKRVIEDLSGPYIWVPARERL
molecule,measurement,setting,value
YGRKKRRQRRR-NPEG4-di-IETDV [AVLX-144],pH below which LLPS of PSD-95 is induced,[1],below 6.4 pH
same,LLPS induction in the PSD-95 containing ePSD,[2]; [7],induced LLPS to a minor extent
YGRKKRRQRRR-NPEG4-di-IETAA [AVLX-144-AA],effect on ePSD LLPS formation,"[2]; SDS-PAGE sedimentation, ePSD 3 μM, compared with AVLX-144",largely compromised the ability to drive LLPS
CC[C@H](C)[C@H](NC(=O)[C@H](CO)NC(=O)[C@H](CO)NC(=O)[C@H](CC(C)C)NC(=O)[C@H](CCCCN)NC(=O)[C@H](CCCN=C(N)N)NC(=O)[C@H](CCCN=C(N)N)NC(=O)[C@H](CCCN=C(N)N)NC(=O)[C@H](CCC(N)=O)NC(=O)[C@H](CCCN=C(N)N)NC(=O)[C@H](CCCN=C(N)N)NC(=O)[C@H](CCCCN)NC(=O)[C@H](CCCCN)NC(=O)[C@H](CCCN=C(N)N)NC(=O)CNC(=O)[C@@H](N)Cc1ccc(O)cc1)C(=O)N[C@@H](CCC(=O)O)C(=O)N[C@@H](CO)C(=O)N[C@@H](CC(=O)O)C(=O)N[C@H](C(=O)O)C(C)C [NA-1] (H-YGRKKRRQRRRKLSSIESDV-OH),Ki,"[3]; pH 6.4, competitive FP, pH 6.4",7.2 µM
same,Ki,"[3]; pH 7.4, competitive FP, pH 7.4",4.5 µM
same,Ki,"[3]; pH 8.4, competitive FP, pH 8.4",2.6 µM
same,Ki,"[3]; pH 9.4, competitive FP, pH 9.4",4.1 µM
CC[C@H](C)[C@H](NC(=O)[C@H](CO)NC(=O)[C@H](CO)NC(=O)[C@H](CC(C)C)NC(=O)[C@H](CCCCN)NC(=O)[C@H](CCCNC(=N)N)NC(=O)[C@H](CCCNC(=N)N)NC(=O)[C@H](CCCNC(=N)N)NC(=O)[C@H](CCC(N)=O)NC(=O)[C@H](CCCNC(=N)N)NC(=O)[C@H](CCCNC(=N)N)NC(=O)[C@H](CCCCN)NC(=O)[C@H](CCCCN)NC(=O)[C@H](CCCNC(=N)N)NC(=O)CNC(=O)[C@@H](N)Cc1ccc(O)cc1)C(=O)N[C@@H](CCC(=O)O)C(=O)N[C@@H](CO)C(=O)N[C@@H](CC(=O)O)C(=O)N[C@H](C(=O)O)C(C)C [NA-1] (H-YGRKKRRQRRRKLSSIESDV-OH; N-terminus and C-terminus assumed),LLPS induction for PSD-95 alone by known inhibitors,[4],able
same,pH below which LLPS of PSD-95 is induced,[1],below 7.4 pH
same,promotion of LLPS of ePSD,[2],able to promote LLPS
same,LLPS induction in the PSD-95 containing ePSD,[2]; [7],could induce LLPS
same,LLPS once complexed with the ePSD,[5],induces LLPS
YGRKKRRQRRR [TAT11],promotion of LLPS of ePSD,[2],able to promote LLPS
same,LLPS induction of the ePSD,"[2]; SDS-PAGE sedimentation, peptide 10 μM, ePSD 3 μM",induced LLPS
same,chemical shift perturbations in 1H-15N-HSQC,[6],did not result in any chemical shift perturbations
